Each structure is given as a SMILES string. Active and inactive are the calls of the source.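 Rule for the calls: active = falling signal with an AC50 no greater than ten times the top valid dose tested for that sample; inconclusive = flat response with 30 to 70% inhibition, or poor fit; inactive = activity in the rising direction, and the rest.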

For orientation: AC50 means the concentration giving half of the maximal activity seen.

In one experiment the test system is V. harveyi MM32 AI-2 bioluminescence, 5 h. In words: AI-2 driven bioluminescence decrease, LuxPQ pathway – strain MM32 LuxS-null, luminescence, dry powder, set 4, mechanism study for V. harveyi quorum sensing inhibitors, dose response (AID 493116).
Conditions: not given
Turning to `C=Cn1c(C(=O)O)ccc1-c1ccc(CC)cc1`, the half-maximal activity concentration (AC50) is 2.34 µM.
Take `C=Cn1c(C(=O)O)ccc1-c1ccc(OC)cc1`: the half-maximal activity concentration (AC50) was 6.14 µM.
As to `Cn1cnc(S(=O)(=O)Nc2ccccc2Cl)c1`, the AC50 was > 16 µM (inactive).
For the compound `Cn1cnc(S(=O)(=O)Nc2ccc(OC(F)(F)F)cc2)c1`, the AC50 is 2.39 µM.
For `Cc1ccccc1NS(=O)(=O)c1cn(C)cn1`, the AC50 is > 16 µM (inactive).
On the same count and under the same terms, under `O=C1C=C/C(=C/Br)O1` stands 2.29 µM; under `O=S(=O)(Nc1ccccn1)c1ccc(Oc2ccccc2)cc1`, 2.25 µM; under `CCc1ccc(-c2ccc(C(=O)O)n2C)cc1`, 2.84 µM.
Same read-out and setting: the value for `O=S(=O)(Nc1cccnc1)c1ccc(Oc2ccccc2)cc1` was 0.538 µM.

Test system in the next experiment: not listed separately
The experiment is described as above. Conditions: V. harveyi MM32 AI-2 bioluminescence, 5 h; at 16 µM (top of the series).
For `CCc1ccc(-c2ccc(C(=O)O)n2CC)cc1`, the activity change, negative = inhibition is 1.73% (inactive).
Take `CN(C)C(=O)c1ccccc1NS(=O)(=O)c1cn(C)cn1`: the activity change, negative = inhibition is 0.78% (inactive).
For `Cn1cnc(S(=O)(=O)Nc2ccccc2F)c1`, the activity change, negative = inhibition was -0.646% (inactive).
On the same count and under the same terms, under `CC(=O)Nc1ccccc1NS(=O)(=O)c1cn(C)cn1` stands -2.94% (inactive); under `COc1ccccc1NS(=O)(=O)c1cn(C)cn1`, -4.54% (inactive).

Values taken from PubChem BioAssay AID493116 (Broad Institute, 2011).
